Assays:
[1] = molecular target: T1, Human CD73 (amino acid residues 27-549) (Homo sapiens, UniProt P21589); assay: CD73 enzymatic assay (luciferase-based indirect assay, CellTiter-Glo); type: biochemical; conditions: 0.4 nM CD73, 150 μM AMP, 1 hour at room temperature
T1 construct: Human CD73 (amino acid residues 27-549); His tag (N); made in house; host or cells: E. coli
T1 sequence (P21589 27-549): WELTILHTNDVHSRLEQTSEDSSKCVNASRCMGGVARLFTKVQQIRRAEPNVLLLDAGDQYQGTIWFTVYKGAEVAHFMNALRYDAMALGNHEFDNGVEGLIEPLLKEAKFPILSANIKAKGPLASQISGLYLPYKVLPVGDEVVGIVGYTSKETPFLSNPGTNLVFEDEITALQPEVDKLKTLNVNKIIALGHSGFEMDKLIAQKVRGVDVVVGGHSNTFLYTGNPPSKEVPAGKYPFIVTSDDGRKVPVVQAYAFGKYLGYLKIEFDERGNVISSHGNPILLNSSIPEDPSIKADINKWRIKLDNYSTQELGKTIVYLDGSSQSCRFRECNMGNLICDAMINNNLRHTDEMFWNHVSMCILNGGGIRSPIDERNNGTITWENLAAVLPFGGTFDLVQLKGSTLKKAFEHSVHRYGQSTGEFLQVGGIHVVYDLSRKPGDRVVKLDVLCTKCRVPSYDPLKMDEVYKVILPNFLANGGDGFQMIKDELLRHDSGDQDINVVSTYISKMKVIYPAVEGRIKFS
Outline: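 N-His human CD73 (27-549) expressed in E. coli, 0.4 nM, incubated with 150 μM AMP and compound in 50 mM HEPES pH 7.4, 0.01% Tween-20, 1 h at RT. Remaining AMP read via CellTiter-Glo luminescence with 1 μM ATP after 30 min; IC50 from nonlinear regression of % inhibition.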

human CD73 = molecular target: T2, human CD73 (Homo sapiens, UniProt P21589); assay: Inhibitor activity against CD73 in cell based assay (CD73 expressing CHO-K1 cells); conditions: CHO-K1 cells expressing human CD73, 150 μM AMP, 4 hours of incubation; read-out: CHO-K1 CELL_VARIANT: CD73 IC50
T2 construct: expressed in transfected cells
T2 sequence (P21589 27-549): T1 sequence (P21589 27-549)
Outline: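 Stable human CD73 CHO-K1 cells, 1×10^4/well, exposed to an 8-point 1:3 compound series (top 10 μM, 0.2% DMSO) plus 150 μM AMP for 4 h. Remaining AMP in the supernatant was read by CellTiter-Glo 2.0 luminescence with 1 μM ATP after 30 min at room temperature. IC50 came from nonlinear regression of % inhibition against cell and media-only controls.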

SMILES	IC50 [1] [µM]	IC50 (human CD73) [µM]
Cc1nn(CC(F)(F)F)c(C)c1-c1cc(F)nc(O[C@@H]2CCN(c3cn[nH]c(=O)c3Cl)C2)c1 [P-0167, (R)-4-chloro-5-(3-((4-(3,5-dimethyl-1-(2,2,2-trifluoroethyl)-1H-pyrazol-4-yl)-6-fluoropyridin-2-yl)oxy)pyrrolidin-1-yl)pyridazin-3(2H)-one]	0.001 to 10	0.001 to 10
Cc1noc(C)c1-c1cc(O[C@@H]2CCN(c3cn[nH]c(=O)c3Cl)C2)ncc1F [P-0149, (R)-4-chloro-5-(3-((4-(3,5-dimethylisoxazol-4-yl)-5-fluoropyridin-2-yl)oxy)pyrrolidin-1-yl)pyridazin-3(2H)-one]	0.001 to 10	0.001 to 10
Cc1noc(C)c1-c1cc(O[C@H]2CN(c3cn[nH]c(=O)c3Cl)C[C@@H]2F)ncc1F [P-0134, 4-chloro-5-((3S,4S)-3-((4-(3,5-dimethylisoxazol-4-yl)-5-fluoropyridin-2-yl)oxy)-4-fluoropyrrolidin-1-yl)pyridazin-3(2H)-one]	0.001 to 10	0.001 to 10
Cc1nn(C)c(C)c1-c1cc(O[C@H]2CN(c3cnn(CCO)c(=O)c3Cl)C[C@@H]2F)ccn1 [P-0119, 4-chloro-5-((3S,4S)-3-fluoro-4-((2-(1,3,5-trimethyl-1H-pyrazol-4-yl)pyridin-4-yl)oxy)pyrrolidin-1-yl)-2-(2-hydroxyethyl)pyridazin-3(2H)-one]	0.001 to 10	0.001 to 10
CCCNS(=O)(=O)c1ccc(-c2cc(F)nc(O[C@@H]3CCN(c4cn[nH]c(=O)c4Cl)C3)c2)c(C)c1 [P-0216, (R)-4-(2-((1-(5-chloro-6-oxo-1,6-dihydropyridazin-4-yl)pyrrolidin-3-yl)oxy)-6-fluoropyridin-4-yl)-3-methyl-N-propylbenzenesulfonamide]	0.001 to 10	0.001 to 10
Cc1nn(CC2(F)CNC2)c(C)c1-c1cc(F)nc(O[C@@H]2CCN(c3cn[nH]c(=O)c3Cl)C2)c1 [P-0154, (R)-4-chloro-5-(3-((6-fluoro-4-(1-((3-fluoroazetidin-3-yl)methyl)-3,5-dimethyl-1H-pyrazol-4-yl)pyridin-2-yl)oxy)pyrrolidin-1-yl)pyridazin-3(2H)-one]	0.001 to 10	0.001 to 10
Cc1nn(CC(F)F)c(C)c1-c1cc(F)nc(O[C@@H]2CCN(c3cn[nH]c(=O)c3Cl)C2)c1 [P-0169, (R)-4-chloro-5-(3-((4-(1-(2,2-difluoroethyl)-3,5-dimethyl-1H-pyrazol-4-yl)-6-fluoropyridin-2-yl)oxy)pyrrolidin-1-yl)pyridazin-3(2H)-one]	0.001 to 10	0.001 to 10
O=C(C1CC1)N1CCC(c2ccnc(O[C@@H]3CCN(c4cn[nH]c(=O)c4Cl)C3)c2)CC1 [P-0058, (R)-4-chloro-5-(3-((4-(1-(cyclopropanecarbonyl)piperidin-4-yl)pyridin-2-yl)oxy)pyrrolidin-1-yl)pyridazin-3(2H)-one]	0.001 to 10	0.001 to 10
O=c1[nH]ncc(N2CC[C@@H](Oc3cc(N4CCC5(CC4)CC(F)(F)C5)ccn3)C2)c1Cl [P-0024, (R)-4-chloro-5-(3-((4-(2,2-difluoro-7-azaspiro[3.5]nonan-7-yl)pyridin-2-yl)oxy)pyrrolidin-1-yl)pyridazin-3(2H)-one]	0.001 to 10	0.001 to 10
Cc1nn(CC(C)(C)O)c(C)c1-c1cc(F)nc(O[C@@H]2CCN(c3cn[nH]c(=O)c3Cl)C2)c1 [P-0186, (R)-4-chloro-5-(3-((6-fluoro-4-(1-(2-hydroxy-2-methylpropyl)-3,5-dimethyl-1H-pyrazol-4-yl)pyridin-2-yl)oxy)pyrrolidin-1-yl)pyridazin-3(2H)-one]	0.001 to 10	0.001 to 10
Cc1nn(CC2CC(C(N)=O)C2)c(C)c1-c1ccnc(O[C@@H]2CCN(c3cn[nH]c(=O)c3Cl)C2)c1 (stereo partly drawn) [P-0056, (R)-3-((4-(2-((1-(5-chloro-6-oxo-1,6-dihydropyridazin-4-yl)pyrrolidin-3-yl)oxy)pyridin-4-yl)-3,5-dimethyl-1H-pyrazol-1-yl)methyl)cyclobutane-1-carboxamide]	0.001 to 10	0.001 to 10
O=C(Nc1ccc(-c2ccnc(O[C@@H]3CCN(c4cn[nH]c(=O)c4Cl)C3)c2)c(F)c1)C1CCCC1 [P-0206, (R)-N-(4-(2-((1-(5-chloro-6-oxo-1,6-dihydropyridazin-4-yl)pyrrolidin-3-yl)oxy)pyridin-4-yl)-3-fluorophenyl)cyclopentane-carboxamide]	0.001 to 10	0.001 to 10
Cc1nn(C)c(C)c1-c1cc(F)nc(O[C@@H]2CCN(c3cnn(CCO)c(=O)c3Cl)C2)c1 [P-0199, (R)-4-chloro-5 (3-((6-fluoro-4-(1,3,5-trimethyl-1H-pyrazol-4-yl)pyridin-2-yl)oxy)pyrrolidin-1-yl)-2-(2-hydroxyethyl)pyridazin-3(2H)-one]	0.001 to 10	0.001 to 10
Cc1nn(CC2CCCO2)c(C)c1-c1ccnc(O[C@@H]2CCN(c3cn[nH]c(=O)c3Cl)C2)c1 (stereo partly drawn) [P-0042, 4-chloro-5-((3R)-3-((4-(3,5-dimethyl-1-((tetrahydrofuran-2-yl)methyl)-1H-pyrazol-4-yl)pyridin-2-yl)oxy)pyrrolidin-1-yl)pyridazin-3(2H)-one]	0.001 to 10	0.001 to 10
Cc1c(-c2cc(F)nc(O[C@@H]3CCN(c4cn[nH]c(=O)c4Cl)C3)c2)cnn1CC1(C)COC1 [P-0151, (R)-4-chloro-5-(3-((6-fluoro-4-(5-methyl-1-((3-methyloxetan-3-yl)methyl)-1H-pyrazol-4-yl)pyridin-2-yl)oxy)pyrrolidin-l-yl)pyridazin-3(2H)-one]	0.001 to 10	0.001 to 10
Cc1nn(CC2CCCOC2)c(C)c1-c1ccnc(O[C@@H]2CCN(c3cn[nH]c(=O)c3Cl)C2)c1 (stereo partly drawn) [P-0043, 4-chloro-5-((3R)-3-((4-(3,5-dimethyl-1-((tetrahydro-2H-pyran-3-yl)methyl)-1H-pyrazol-4-yl)pyridin-2-yl)oxy)pyrrolidin-1-yl)pyridazin-3(2H)-one]	0.001 to 10	0.001 to 10
Cc1noc(C)c1-c1cc(O[C@@H]2CCN(c3cnn(CCO)c(=O)c3Cl)C2)ncc1F [P-0146, (R)-4-chloro-5-(3-((4-(3,5-dimethylisoxazol-4-yl)-5-fluoropyridin-2-yl)oxy)pyrrolidin-1-yl)-2-(2-hydroxyethyl)pyridazin-3(2H)-one]	0.001 to 10	0.001 to 10
O=c1[nH]ncc(N2CC[C@@H](Oc3cc(-c4ccc(OC(F)(F)F)cc4)ccn3)C2)c1Cl [P-0237, (R)-4-chloro-5-(3-((4-(4-(trifluoromethoxy)phenyl)pyridin-2-yl)oxy)pyrrolidin-1-yl)pyridazin-3(2H)-one]	0.001 to 10	0.001 to 10
Cc1nn(CCO)c(C)c1-c1ccnc(O[C@@H]2CCN(c3cn[nH]c(=O)c3Cl)C2)c1 [P-0076, (R)-4-chloro-5-(3-((4-(1-(2-hydroxyethyl)-3,5-dimethyl-1H-pyrazol-4-yl)pyridin-2-yl)oxy)pyrrolidin-1-yl)pyridazin-3(2H)-one]	0.001 to 10	0.001 to 10
O=c1[nH]ncc(N2CC[C@@H](Oc3cc(C4CCN(CC(O)C(F)(F)F)CC4)ccn3)C2)c1Cl (stereo partly drawn) [P-0011, 4-chloro-5-((3R)-3-((4-(1-(3,3,3-trifluoro-2-hydroxypropyl)piperidin-4-yl)pyridin-2-yl)oxy)pyrrolidin-1-yl)pyridazin-3(2H)-one]	0.001 to 10	0.001 to 10
Cc1nn(CCC#N)c(C)c1-c1ccnc(O[C@@H]2CCN(c3cn[nH]c(=O)c3Cl)C2)c1 [P-0044, (R)-3-(4-(2-((1-(5-chloro-6-oxo-1,6-dihydropyridazin-4-yl)pyrrolidin-3-yl)oxy)pyridin-4-yl)-3,5-dimethyl-1H-pyrazol-1-yl)propanenitrile]	0.001 to 10	0.001 to 10
Cc1noc(C)c1-c1cc(O[C@@H]2CCN(c3cn[nH]c(=O)c3Cl)C2)ncn1 [P-0182, (R)-4-chloro-5-(3-((6-(3,5-dimethylisoxazol-4-yl)pyrimidin-4-yl)oxy)pyrrolidin-1-yl)pyridazin-3(2H)-one]	0.001 to 10	0.001 to 10
O=c1[nH]ncc(N2CC[C@@H](Oc3cc(-c4ccc(NS(=O)(=O)C5CC5)cc4)ccn3)C2)c1Cl [P-0245, (R)-N-(4-(2-((1-(5-chloro-6-oxo-1,6-dihydropyridazin-4-yl)pyrrolidin-3-yl)oxy)pyridin-4-yl)phenyl)cyclopropanesulfon-amide]	0.001 to 10	0.001 to 10
O=c1[nH]ncc(N2CC[C@@H](Oc3cc(-c4ccc(S(=O)(=O)N5CCCCC5)cc4)c(Cl)cn3)C2)c1Cl [P-0249, (R)-4-chloro-5-(3-((5-chloro-4-(4-(piperidin-1-ylsulfonyl)phenyl)pyridin-2-yl)oxy)pyrrolidin-1-yl)pyridazin-3(2H)-one]	0.001 to 10	0.001 to 10
